According to patent US11805799B2, “Composition for preventing, relieving or treating climacteric disorders comprising lactic acid bacteria and prebiotics” (CELL BIOTECH CO., LTD., priority 2019, dated 2023):

Tests used:
[1] = tested on: estrogen receptor (ER); conditions: background statement; cited from earlier work
[2] = target: ERβ (Homo sapiens, UniProt Q92731); conditions: background statement; cited from earlier work
[3] = Equol productivity of probiotic strains cultured in soybean germ extract (S30); conditions: inoculated into 30% isoflavone-containing soybean germ extract (S30), 37° C., 48 hours
Procedure: A probiotic strain having the ability to produce equol from a soybean germ extract (S30) containing 30 wt % of isoflavone was selected.
First, a soybean germ extract was prepared using 40 g/L of a soybean germ extract (S30, prepared by Seorim Bio) containing 30 wt % of isoflavone and sterile water. The pH of the soybean germ extract was adjusted to 6.7 using 5M NaOH. The entire soybean germ extract was sterilized by autoclaving at 121° C. for 15 minutes. Microorganisms were activated in rehydrated MRS (Mann Rogosa Sharpe) broth (De Mann et al. 1960) at 37° C. for 20 hours three times, followed by fourth activation in the sterile soybean germ extract at an inoculum level of 5% (v/v). 40 to 400 mL of the sterile soybean germ extract was inoculated with the active culture (5% v/v), and incubated at 37° C. for 24 hours to hydrolyze isoflavone glycosides. The strain activated in the soybean germ extract was used.
In addition, samples were taken at regular time intervals in a time-dependent manner and measured for β-glucosidase activity. […] The sequence of the above screening steps was determined flexibly. That is, strains producing equol were first screened, and then β-glucosidase activity was measured, or strains having high β-glucosidase activity were first screened, and then whether the strains produced equol was examined. […]

ERβ, sequence (Q92731 whole entry): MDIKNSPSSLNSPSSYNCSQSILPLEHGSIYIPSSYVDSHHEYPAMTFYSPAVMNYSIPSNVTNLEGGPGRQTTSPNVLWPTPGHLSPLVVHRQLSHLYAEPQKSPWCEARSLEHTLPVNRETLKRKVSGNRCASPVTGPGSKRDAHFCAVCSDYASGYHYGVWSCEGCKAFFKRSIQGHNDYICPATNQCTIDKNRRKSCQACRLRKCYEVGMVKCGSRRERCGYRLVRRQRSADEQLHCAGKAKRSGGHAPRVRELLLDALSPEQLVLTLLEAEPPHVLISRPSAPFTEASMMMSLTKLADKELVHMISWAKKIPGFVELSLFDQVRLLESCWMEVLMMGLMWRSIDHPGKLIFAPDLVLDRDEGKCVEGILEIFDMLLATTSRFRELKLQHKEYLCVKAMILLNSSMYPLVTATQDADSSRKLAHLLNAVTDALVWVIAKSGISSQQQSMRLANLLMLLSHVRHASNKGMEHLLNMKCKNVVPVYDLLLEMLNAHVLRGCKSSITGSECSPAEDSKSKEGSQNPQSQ

Compound	ER binding affinity [1]	affinity for ERβ [2]	equol production / equol productivity in culture supernatant [3]
Oc1ccc([C@H]2COc3cc(O)ccc3C2)cc1 [Equol]	higher ER binding affinity than daidzein	high affinity for ERβ	
O=c1c(-c2ccc(O)cc2)coc2cc(O)ccc12 [daidzein]	exhibits estrogen receptor (ER) binding affinity		
Bifidobacterium longum			equol was produced
